Experiments:
M. marinum luxCDABE = format: cell-based, Mycobacterium marinum; details: 10 µM
Mtb H37Rv in THP-1 = tested on: Mtb H37Rv in THP-1; design: method as in Sorrentino et al, 2015; details: ref Sorrentino et al, 2015, cited from earlier work; for Intracelullar MIC90 in THP-1: THP1 / Mtb H37Rv infection assay; for Extracellular MIC90/ Inracellular MIC90: ratio
[1] = tested on: M. marinum in BV2 microglial cells; format: cell-based, Mycobacterium marinum
Mtb H37Rv = tested on: Mtb H37Rv; design: method as in Sorrentino et al, 2015; details: ref Sorrentino et al, 2015; cited from earlier work
[2] = tested on: M. marinum in A. castellanii; format: cell-based, Mycobacterium marinum; details: 10 µM
D. discoideum GFP-ABD = details: 10 µM
M. marinum GFP = format: cell-based, Mycobacterium marinum; details: 10 µM; antibiotic assay

Br.CC(C)(C)c1ccccc1OCCCON1C(=N)N=C(N)NC1(C)C [BRL-7940SA]
M. marinum luxCDABE normalised growth, control=1.00, mean (M. marinum luxCDABE): 0.00
Intracelullar MIC90 in THP-1 (Mtb H37Rv in THP-1): 1.85 µM
Extracellular MIC90/ Inracellular MIC90 (Mtb H37Rv in THP-1): 1.24
IC50 [1]: 3.14 µM
BV2 / M. marinum normalised growth, control=1.00, mean ([1]; 10 µM): 0.53
Extracellular MIC90 (Mtb H37Rv): 2.3 µM
A. castellanii / M. marinum normalised growth, control=1.00, mean [2]: 2.62
D. discoideum GFP-ABD normalised growth, control=1.00, mean (D. discoideum GFP-ABD): 0.67
M. marinum GFP normalised growth, control=1.00, mean (M. marinum GFP): 0.04

Br.CC1(C)N=C(N)N=C(N)N1OCCc1ccc2ccccc2c1 [BRL-8088SA]
M. marinum luxCDABE normalised growth, control=1.00, mean (M. marinum luxCDABE): 0.00
Intracelullar MIC90 in THP-1 (Mtb H37Rv in THP-1): 5.55 µM
Extracellular MIC90/ Inracellular MIC90 (Mtb H37Rv in THP-1): 0.41
IC50 [1]: 2.81 µM
BV2 / M. marinum normalised growth, control=1.00, mean ([1]; 10 µM): 0.52
Extracellular MIC90 (Mtb H37Rv): 2.3 µM
A. castellanii / M. marinum normalised growth, control=1.00, mean [2]: 2.26
D. discoideum GFP-ABD normalised growth, control=1.00, mean (D. discoideum GFP-ABD): 0.71
M. marinum GFP normalised growth, control=1.00, mean (M. marinum GFP): 0.05

Br.Cc1ccccc1OCCCON1C(=N)N=C(N)NC1(C)C [BRL-8903SA]
M. marinum luxCDABE normalised growth, control=1.00, mean (M. marinum luxCDABE): 0.00
Intracelullar MIC90 in THP-1 (Mtb H37Rv in THP-1): 16.65 µM
Extracellular MIC90/ Inracellular MIC90 (Mtb H37Rv in THP-1): 0.23
IC50 [1]: 4.27 µM
BV2 / M. marinum normalised growth, control=1.00, mean ([1]; 10 µM): 0.52
Extracellular MIC90 (Mtb H37Rv): 3.8 µM
A. castellanii / M. marinum normalised growth, control=1.00, mean [2]: 2.27
D. discoideum GFP-ABD normalised growth, control=1.00, mean (D. discoideum GFP-ABD): 0.88
M. marinum GFP normalised growth, control=1.00, mean (M. marinum GFP): 0.06

Br.CCc1ccccc1OCCCON1C(=N)N=C(N)NC1(C)C [BRL-10143SA]
M. marinum luxCDABE normalised growth, control=1.00, mean (M. marinum luxCDABE): 0.00
Intracelullar MIC90 in THP-1 (Mtb H37Rv in THP-1): 1.85 µM
Extracellular MIC90/ Inracellular MIC90 (Mtb H37Rv in THP-1): 1.73
IC50 [1]: 4.19 µM
BV2 / M. marinum normalised growth, control=1.00, mean ([1]; 10 µM): 0.55
Extracellular MIC90 (Mtb H37Rv): 3.2 µM
A. castellanii / M. marinum normalised growth, control=1.00, mean [2]: 2.62
D. discoideum GFP-ABD normalised growth, control=1.00, mean (D. discoideum GFP-ABD): 0.53
M. marinum GFP normalised growth, control=1.00, mean (M. marinum GFP): 0.04

Br.CC1(C)NC(N)=NC(=N)N1OCCCOc1ccc(Cl)cc1Cl [BRL-51091AM]
M. marinum luxCDABE normalised growth, control=1.00, mean (M. marinum luxCDABE): 0.00
Intracelullar MIC90 in THP-1 (Mtb H37Rv in THP-1): 5.55 µM
Extracellular MIC90/ Inracellular MIC90 (Mtb H37Rv in THP-1): 0.63
IC50 [1]: 1.8 µM
BV2 / M. marinum normalised growth, control=1.00, mean ([1]; 10 µM): 0.51
Extracellular MIC90 (Mtb H37Rv): 3.5 µM
A. castellanii / M. marinum normalised growth, control=1.00, mean [2]: 1.95
D. discoideum GFP-ABD normalised growth, control=1.00, mean (D. discoideum GFP-ABD): 0.97
M. marinum GFP normalised growth, control=1.00, mean (M. marinum GFP): 1.23

Nc1cccnc1Nc1ccc(Cl)cc1 [GR135486X]
M. marinum luxCDABE normalised growth, control=1.00, mean (M. marinum luxCDABE): 1.00
Intracelullar MIC90 in THP-1 (Mtb H37Rv in THP-1): 5.55 µM
Extracellular MIC90/ Inracellular MIC90 (Mtb H37Rv in THP-1): 0.04
IC50 [1]: 10.8 µM
BV2 / M. marinum normalised growth, control=1.00, mean ([1]; 10 µM): 0.75
Extracellular MIC90 (Mtb H37Rv): 0.2 µM
A. castellanii / M. marinum normalised growth, control=1.00, mean [2]: 0.97
D. discoideum GFP-ABD normalised growth, control=1.00, mean (D. discoideum GFP-ABD): 0.35
M. marinum GFP normalised growth, control=1.00, mean (M. marinum GFP): 0.83

Cc1occc1C(=O)Nc1nc(-c2ccccn2)nc2ccsc12 [GSK237561A]
M. marinum luxCDABE normalised growth, control=1.00, mean (M. marinum luxCDABE): 0.00
Intracelullar MIC90 in THP-1 (Mtb H37Rv in THP-1): 1.85 µM
Extracellular MIC90/ Inracellular MIC90 (Mtb H37Rv in THP-1): 2.16
IC50 [1]: 3.9 µM
BV2 / M. marinum normalised growth, control=1.00, mean ([1]; 10 µM): 0.73
Extracellular MIC90 (Mtb H37Rv): 4 µM
A. castellanii / M. marinum normalised growth, control=1.00, mean [2]: 1.57
D. discoideum GFP-ABD normalised growth, control=1.00, mean (D. discoideum GFP-ABD): -0.0741
M. marinum GFP normalised growth, control=1.00, mean (M. marinum GFP): 0.31

N#Cc1ccc2c(c1)CCN(CCCSc1ccnc3cc(C(F)(F)F)ccc13)CC2 [GSK254610A]
M. marinum luxCDABE normalised growth, control = 1.00, mean (M. marinum luxCDABE): 0,00
M. marinum luxCDABE normalised growth, control=1.00, mean (M. marinum luxCDABE): 0.00
BV2 / M. marinum normalised growth, control=1.00, mean ([1]; 10 µM): 0.50
hit in BV2/M. marinum assay True/False ([1]; 10 µM): TRUE
A. castellanii / M. marinum normalised growth, control=1.00, mean [2]: 0.87
Hits A. castellanii/M. marinum assay True/False [2]: FALSE
D. discoideum GFP-ABD normalised growth, control=1.00, mean (D. discoideum GFP-ABD): 0.88
M. marinum GFP normalised growth, control=1.00, mean (M. marinum GFP): 0.05

CN1CCN(c2cc(-c3ccncc3)nc(-c3ccccc3)n2)CC1 [GSK275984A]
M. marinum luxCDABE normalised growth, control=1.00, mean (M. marinum luxCDABE): 0.065
Intracelullar MIC90 in THP-1 (Mtb H37Rv in THP-1): 5.55 µM
Extracellular MIC90/ Inracellular MIC90 (Mtb H37Rv in THP-1): 1.62
IC50 [1]: 5.11 µM
BV2 / M. marinum normalised growth, control=1.00, mean ([1]; 10 µM): 0.62
Extracellular MIC90 (Mtb H37Rv): 9 µM
A. castellanii / M. marinum normalised growth, control=1.00, mean [2]: 1.13
D. discoideum GFP-ABD normalised growth, control=1.00, mean (D. discoideum GFP-ABD): 0.52
M. marinum GFP normalised growth, control=1.00, mean (M. marinum GFP): 0.26

COc1cc(C(F)(F)F)nc2ccc(C)c(N)c12 [GSK345724A]
M. marinum luxCDABE normalised growth, control=1.00, mean (M. marinum luxCDABE): 0.31
Intracelullar MIC90 in THP-1 (Mtb H37Rv in THP-1): 1.85 µM
Extracellular MIC90/ Inracellular MIC90 (Mtb H37Rv in THP-1): 2.86
IC50 [1]: 8.6 µM
BV2 / M. marinum normalised growth, control=1.00, mean ([1]; 10 µM): 0.87
Extracellular MIC90 (Mtb H37Rv): 5.3 µM
A. castellanii / M. marinum normalised growth, control=1.00, mean [2]: 1.16
D. discoideum GFP-ABD normalised growth, control=1.00, mean (D. discoideum GFP-ABD): 0.95
M. marinum GFP normalised growth, control=1.00, mean (M. marinum GFP): 0.29

O=C(NNC(=O)c1ccc([N+](=O)[O-])o1)c1ccc2ccccc2c1 [GSK347301A]
M. marinum luxCDABE normalised growth, control=1.00, mean (M. marinum luxCDABE): 0.19
Intracelullar MIC90 in THP-1 (Mtb H37Rv in THP-1): 16.65 µM
Extracellular MIC90/ Inracellular MIC90 (Mtb H37Rv in THP-1): 0.5
IC50 [1]: 6.58 µM
BV2 / M. marinum normalised growth, control=1.00, mean ([1]; 10 µM): 0.97
Extracellular MIC90 (Mtb H37Rv): 8.3 µM
A. castellanii / M. marinum normalised growth, control=1.00, mean [2]: 0.90
D. discoideum GFP-ABD normalised growth, control=1.00, mean (D. discoideum GFP-ABD): 0.49
M. marinum GFP normalised growth, control=1.00, mean (M. marinum GFP): 1.03
